Data from the supplement of paper PMC11208160.

Test: recombinant UMI read abundance after kanamycin selection (control-corrected) (log10(CPM+1)); higher = more efficient recombination; extreme values may be limits of the assay; sequences stand for … in AGTGCAGAGAAAATCGGCCAGTTTTCTCTGCCTGCAGTCCGCATGCCGTGGGACCCCTTGGGTTCTAACCTGTTGCCTAGATTTATGCAGCGGACTGCCTTTCTCCCAAAGTGATAAACCGG…AGGTTGGTTTCACT; site = the 11-nt donor
How it was run: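 In a pooled Escherichia coli screen for the IS621 bridge recombinase, donor and donor-binding-loop pairs were each placed with a 12-nt UMI on a plasmid bearing a promoterless kanamycin gene. This library was co-electroporated with a target plasmid encoding a fixed target and T7-inducible recombinase, and cells were plated either on IPTG (0.07 mM) plus kanamycin or without selection, in two replicates each. Recombinant UMIs were PCR-amplified across the donor–target junction and sequenced, and counts were converted to CPM, averaged over replicates, scaled by control-derived factors and reported as log10(CPM+1).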
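Also: IS621 bridge recombinase in Escherichia coli cells against a fixed T5 target plasmid.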

CGGAATCCATGGACCGGTTTTCCCGGTAATCCGTATTTGTT (site CGTAGTCCTAA)
recombinant UMI read abundance (log10): 0.00941

CGGAATCCATGGACCGGTTTTCCCGGTAATCCGTATTTGTT (site CGTTATCCTAA)
recombinant UMI read abundance (log10): 0.00294

CGGAATCCATGGACCGGTTTTCCCGGTAATCCGTATTTGTT (site CTCAATCCTAA)
recombinant UMI read abundance (log10): 0

CGGAATCCATGGACCGGTTTTCCCGGTAATCCGTATTTGTT (site CTGAACCCTAA)
recombinant UMI read abundance (log10): 0.0207

CGGAATCCATGGACCGGTTTTCCCGGTAATCCGTATTTGTT (site CTGAATCCTAA)
recombinant UMI read abundance (log10): 0.0031

CGGAATCCATGGACCGGTTTTCCCGGTAATCCGTATTTGTT (site CTGAATCCTAC)
recombinant UMI read abundance (log10): 0

CGGAATCCATGGACCGGTTTTCCCGGTAATCCGTATTTGTT (site CTGAATCCTCA)
recombinant UMI read abundance (log10): 0.0195

CGGAATCCATGGACCGGTTTTCCCGGTAATCCGTATTTGTT (site CTGAATGCTAA)
recombinant UMI read abundance (log10): 0.00589

CGGAATCCATGGACCGGTTTTCCCGGTAATCCGTATTTGTT (site CTGACTCCTAA)
recombinant UMI read abundance (log10): 0.00378

CGGAATCCATGGACCGGTTTTCCCGGTAATCCGTATTTGTT (site CTGCATCCTAA)
recombinant UMI read abundance (log10): 0.0146

CGGAATCCATGGACCGGTTTTCCCGGTAATCCGTATTTGTT (site GAGAATCCTAA)
recombinant UMI read abundance (log10): 0.00637

CGGAATCCATGGACCGGTTTTCCCGGTAATCCGTATTTGTT (site GGGAAGCCTAA)
recombinant UMI read abundance (log10): 0.0234

CGGAATCCATGGACCGGTTTTCCCGGTAATCCGTATTTGTT (site GGGAATACTAA)
recombinant UMI read abundance (log10): 0

CGGAATCCATGGACCGGTTTTCCCGGTAATCCGTATTTGTT (site GGGAATCCTAA)
recombinant UMI read abundance (log10): 0

CGGAATCCATGGACCGGTTTTCCCGGTAATCCGTATTTGTT (site GGGAATCCTAT)
recombinant UMI read abundance (log10): 0

CGGAATCCATGGACCGGTTTTCCCGGTAATCCGTATTTGTT (site GGGAATCCTGA)
recombinant UMI read abundance (log10): 0

CGGAATCCATGGACCGGTTTTCCCGGTAATCCGTATTTGTT (site GGGAGTCCTAA)
recombinant UMI read abundance (log10): 0.00491

CGGAATCCATGGACCGGTTTTCCCGGTAATCCGTATTTGTT (site GGGTATCCTAA)
recombinant UMI read abundance (log10): 0

CGGAATCCATGGACCGGTTTTCCCGGTAATCCGTATTTGTT (site GGTAATCCTAA)
recombinant UMI read abundance (log10): 0

CGGAATCCATGGACCGGTTTTCCCGGTAATCCGTATTTGTT (site TGCAATCCTAA)
recombinant UMI read abundance (log10): 0.0105

CGGAATCCATGGACCGGTTTTCCCGGTAATCCGTATTTGTT (site TGGAACCCTAA)
recombinant UMI read abundance (log10): 0.0136

CGGAATCCATGGACCGGTTTTCCCGGTAATCCGTATTTGTT (site TGGAATCCTAA)
recombinant UMI read abundance (log10): 0

CGGAATCCATGGACCGGTTTTCCCGGTAATCCGTATTTGTT (site TGGAATCCTAC)
recombinant UMI read abundance (log10): 0

CGGAATCCATGGACCGGTTTTCCCGGTAATCCGTATTTGTT (site TGGAATCCTCA)
recombinant UMI read abundance (log10): 0.00675

CGGAATCCATGGACCGGTTTTCCCGGTAATCCGTATTTGTT (site TGGAATGCTAA)
recombinant UMI read abundance (log10): 0.00525

CGGAATCCATGGACCGGTTTTCCCGGTAATCCGTATTTGTT (site TGGACTCCTAA)
recombinant UMI read abundance (log10): 0.027

CGGAATCCATGGACCGGTTTTCCCGGTAATCCGTATTTGTT (site TGGCATCCTAA)
recombinant UMI read abundance (log10): 0.00352

CGGAATCCATGGACCGGTTTTCCCGGTAATCCGTATTTGTT (site TTGAATCCTAA)
recombinant UMI read abundance (log10): 0.00378

CGGAATGCATGGACCGGTTTTCCCGGTAATCCGTATTTGCA (site CGGAATGCTTG)
recombinant UMI read abundance (log10): 2.28

CGGAATGCATGGACCGGTTTTCCCGGTAATCCGTATTTGTG (site CGGAATCCTAA)
recombinant UMI read abundance (log10): 0

CGGAATGCATGGACCGGTTTTCCCGGTAATCCGTATTTGTG (site CGGAATGCTCA)
recombinant UMI read abundance (log10): 2.58

CGGACTCCATGGACCGGTTTTCCCGGTAATCCGTATTTGTT (site CGGAATCCTAA)
recombinant UMI read abundance (log10): 0.00938

CGGACTCCATGGACCGGTTTTCCCGGTAATCCGTATTTGTT (site CGGACTCCTAA)
recombinant UMI read abundance (log10): 1.58

CGGACTCCATGGACCGGTTTTCCCGGTAATCCGTATTTGTT (site CGGAGTCCTAA)
recombinant UMI read abundance (log10): 0.00177

CGGACTCCATGGACCGGTTTTCCCGGTAATCCGTATTTGTT (site CGGATTCCTAA)
recombinant UMI read abundance (log10): 0.00394

CGGAGATCATGGACCGGTTTTCCCGGTAATCCGTATTTGGT (site CGGAGATCTAC)
recombinant UMI read abundance (log10): 2.19

CGGAGCACATGGACCGGTTTTCCCGGTAATCCGTATTTGAA (site CGGAGCACTTT)
recombinant UMI read abundance (log10): 1.77

CGGAGTCCATGGACCGGTTTTCCCGGTAATCCGTATTTGTT (site CGGAATCCTAA)
recombinant UMI read abundance (log10): 0.767

CGGAGTCCATGGACCGGTTTTCCCGGTAATCCGTATTTGTT (site CGGACTCCTAA)
recombinant UMI read abundance (log10): 0.011

CGGAGTCCATGGACCGGTTTTCCCGGTAATCCGTATTTGTT (site CGGAGTCCTAA)
recombinant UMI read abundance (log10): 0.684

CGGAGTCCATGGACCGGTTTTCCCGGTAATCCGTATTTGTT (site CGGATTCCTAA)
recombinant UMI read abundance (log10): 0

CGGATACCATGGACCGGTTTTCCCGGTAATCCGTATTTGTT (site CGGAATCCTAA)
recombinant UMI read abundance (log10): 0.00671

CGGATACCATGGACCGGTTTTCCCGGTAATCCGTATTTGTT (site CGGATACCTAA)
recombinant UMI read abundance (log10): 0

CGGATTGCATGGACCGGTTTTCCCGGTAATCCGTATTTGCT (site CGGATTGCTAG)
recombinant UMI read abundance (log10): 1.79

CGGCAGACATGGACCGGTTTTCCCGGTAATCCGTATTTGGT (site CGGCAGACTAC)
recombinant UMI read abundance (log10): 1.9

CGGCCCTCATGGACCGGTTTTCCCGGTAATCCGTATTTGCA (site CGGCCCTCTTG)
recombinant UMI read abundance (log10): 3.02

CGGCGGACATGGACCGGTTTTCCCGGTAATCCGTATTTGTG (site CGGCGGACTCA)
recombinant UMI read abundance (log10): 1.64

CGGCGTTCATGGACCGGTTTTCCCGGTAATCCGTATTTGAC (site CGGCGTTCTGT)
recombinant UMI read abundance (log10): 1.69

CGGCTGCCATGGACCGGTTTTCCCGGTAATCCGTATTTGTT (site CGGCTGCCTAA)
recombinant UMI read abundance (log10): 0.0892

CGGCTTACATGGACCGGTTTTCCCGGTAATCCGTATTTGTC (site CGGCTTACTGA)
recombinant UMI read abundance (log10): 1.65

CGGGAACCATGGACCGGTTTTCCCGGTAATCCGTATTTGAC (site CGGGAACCTAT)
recombinant UMI read abundance (log10): 0

CGGGAACCATGGACCGGTTTTCCCGGTAATCCGTATTTGAC (site CGGGAACCTCT)
recombinant UMI read abundance (log10): 0

CGGGAACCATGGACCGGTTTTCCCGGTAATCCGTATTTGAC (site CGGGAACCTGT)
recombinant UMI read abundance (log10): 0

CGGGAACCATGGACCGGTTTTCCCGGTAATCCGTATTTGAC (site CGGGAACCTTT)
recombinant UMI read abundance (log10): 0.0135

CGGGAATCATGGACCGGTTTTCCCGGTAATCCGTATTTGAT (site CGGGAAACTAT)
recombinant UMI read abundance (log10): 1.23

CGGGAATCATGGACCGGTTTTCCCGGTAATCCGTATTTGAT (site CGGGAACCTAT)
recombinant UMI read abundance (log10): 0

CGGGAATCATGGACCGGTTTTCCCGGTAATCCGTATTTGAT (site CGGGAAGCTAT)
recombinant UMI read abundance (log10): 0.284

CGGGAATCATGGACCGGTTTTCCCGGTAATCCGTATTTGAT (site CGGGAATCTAT)
recombinant UMI read abundance (log10): 2.01

CGGGACACATGGACCGGTTTTCCCGGTAATCCGTATTTGTC (site CGGGACACTGA)
recombinant UMI read abundance (log10): 3.03

CGGGAGCCATGGACCGGTTTTCCCGGTAATCCGTATTTGCC (site CGGGAGACTGG)
recombinant UMI read abundance (log10): 0.0249

CGGGAGCCATGGACCGGTTTTCCCGGTAATCCGTATTTGCC (site CGGGAGCCTGG)
recombinant UMI read abundance (log10): 0

CGGGAGCCATGGACCGGTTTTCCCGGTAATCCGTATTTGCC (site CGGGAGGCTGG)
recombinant UMI read abundance (log10): 0.991

CGGGAGCCATGGACCGGTTTTCCCGGTAATCCGTATTTGCC (site CGGGAGTCTGG)
recombinant UMI read abundance (log10): 1

CGGGAGTCATGGACCGGTTTTCCCGGTAATCCGTATTTGCC (site AGGGAGTCTGG)
recombinant UMI read abundance (log10): 0

CGGGAGTCATGGACCGGTTTTCCCGGTAATCCGTATTTGCC (site CAGGAGTCTGG)
recombinant UMI read abundance (log10): 2.51

CGGGAGTCATGGACCGGTTTTCCCGGTAATCCGTATTTGCC (site CCGGAGTCTGG)
recombinant UMI read abundance (log10): 0

CGGGAGTCATGGACCGGTTTTCCCGGTAATCCGTATTTGCC (site CGAGAGTCTGG)
recombinant UMI read abundance (log10): 2.48

CGGGAGTCATGGACCGGTTTTCCCGGTAATCCGTATTTGCC (site CGCGAGTCTGG)
recombinant UMI read abundance (log10): 1.69

CGGGAGTCATGGACCGGTTTTCCCGGTAATCCGTATTTGCC (site CGGAAGTCTGG)
recombinant UMI read abundance (log10): 2.67

CGGGAGTCATGGACCGGTTTTCCCGGTAATCCGTATTTGCC (site CGGCAGTCTGG)
recombinant UMI read abundance (log10): 0

CGGGAGTCATGGACCGGTTTTCCCGGTAATCCGTATTTGCC (site CGGGAATCTGG)
recombinant UMI read abundance (log10): 2.83

CGGGAGTCATGGACCGGTTTTCCCGGTAATCCGTATTTGCC (site CGGGACTCTGG)
recombinant UMI read abundance (log10): 0

CGGGAGTCATGGACCGGTTTTCCCGGTAATCCGTATTTGCC (site CGGGAGACTGG)
recombinant UMI read abundance (log10): 1.54

CGGGAGTCATGGACCGGTTTTCCCGGTAATCCGTATTTGCC (site CGGGAGCCTGG)
recombinant UMI read abundance (log10): 0

CGGGAGTCATGGACCGGTTTTCCCGGTAATCCGTATTTGCC (site CGGGAGGCTGG)
recombinant UMI read abundance (log10): 0.103
